In ChEMBL document CHEMBL1156829 (Proc Natl Acad Sci U S A, 2008):

Assays:
[1] = tested on: Plasmodium falciparum; assay: NOVARTIS: Inhibition of Plasmodium falciparum 3D7 (drug-susceptible) proliferation in erythrocyte-based infection assay; assay type: functional, organism-based; conditions: Plasmodium falciparum, 3D7
[2] = tested on: Plasmodium falciparum; assay: NOVARTIS: Inhibition of Plasmodium falciparum W2 (drug-resistant) proliferation in erythrocyte-based infection assay; assay type: functional, organism-based; conditions: Plasmodium falciparum, W2; read-out: EC50
[3] = NOVARTIS: Cytotoxicity against human hepatocellular carcinoma cell line (Huh7); assay type: toxicity, cell-based, Huh-7; conditions: Huh7 cells (hepatocellular carcinoma cell line)

Structure (SMILES)	EC50 [1] [nM]	EC50 [2] [nM]	CC50 [3] [nM]
N=c1n(Cc2ccccc2)c2ccccc2n1CC(O)c1ccc(Cl)cc1 (stereo not given)	257	50.6	11100
O=C(Nc1ccc2oc(-c3cccc4ccccc34)nc2c1)c1ccc([N+](=O)[O-])o1	5060	2650	> 100000
O=C(O)c1ccc2c(c1)N=C(c1ccccc1)N(Cc1cccnc1)C2	476	65.7	> 10000
C=CCOc1cccc(C(Nc2cccc(C)n2)c2ccc3cccnc3c2O)c1 (stereo not given)	5750	1560	> 69400
C=CCc1c(C)nc2ccccc2c1O	707	844	> 100000
Cc1ccc(N=C2S/C(=C\c3ccccc3)C(=O)N2c2ccc(C)cc2)cc1	> 1740	404	> 10000
Cc1ccc(N2C(=O)C3C(C2=O)C2(c4ccccc4)C(=O)C3(c3ccccc3)C(c3ccccc3)=C2c2ccccc2)cc1[N+](=O)[O-] (stereo not given)	822	> 12500	> 100000
COc1ccc(NC(=O)c2cccc([N+](=O)[O-])c2C)cc1	> 3550	4770	> 100000
COc1cccc2c1C(=O)c1c(O)c3c(c(O)c1C2=O)C[C@@](O)(C(=O)CO)C[C@@H]3O[C@@H]1C[C@H](N)[C@H](O)[C@H](C)O1	48.6	47.7	485
OCCc1cn(-c2ccccc2)c2ccccc12	717	226	> 10000
CCCCCCN(C(=O)c1cccc([N+](=O)[O-])c1)C(CC)c1nc2ccccc2c(=O)n1-c1ccccc1OC (stereo not given)	983	355	> 6450
Cc1ccc(NC(=O)C2c3ccccc3C(=O)N(CC(C)C)C2c2cccs2)c(Cl)c1 (stereo not given)	305	191	> 100000
CCOC(=O)C1=CN(c2cc(C)ccc2C)C=C(C(=O)OCC)C1c1ccccc1OCC	264	328	> 100000
OCCCNc1cc(-c2ccnc(Nc3cccc(Cl)c3)n2)ccn1	232	186	269
CC(C)(C)NC(=O)C(c1ccncc1)N(Cc1ccccc1Cl)C(=O)c1ccc(-c2ccccc2)[nH]1 (stereo not given)	> 6470	> 3990	67400
CCCCn1c(=N)c(C(=O)NC(C)c2ccccc2)cc2c(=O)n3cccc(C)c3nc21 (stereo not given)	1380	> 5680	> 100000
COc1cccc(C(NC(=O)c2ccccc2)c2ccc3cccnc3c2O)c1 (stereo not given)	134	216	> 100000
CCCC[C@@H](C)[C@@H](O)[C@H]1C(=O)N[C@@H](C(C)C)C(=O)N(C)[C@H](SC)C(=O)N(C)[C@@H](CC(C)C)C(=O)N[C@@H](C(C)C)C(=O)N(C)[C@@H](CC(C)C)C(=O)N[C@@H](C)C(=O)N[C@H](C)C(=O)N(C)[C@@H](CC(C)C)C(=O)N(C)[C@@H](CC(C)C)C(=O)N(C)[C@@H](C(C)C)C(=O)N1C	32.5	51.7	5180
CC1=CC(=Cc2sc3ccccc3[n+]2C)C=C(C)O1	31.3	23.7	8350
CCOc1ccc(N2C(N)=NC(N)=NC2(C)C)cc1	79	> 12500	> 100000
FC(F)(F)c1cccc(Nc2nc3nonc3nc2Nc2ccc(Cl)cc2)c1	> 1310	1610	> 10000
CCOc1cccc2oc(=O)c(C(=O)Nc3cc(C(C)(C)C)on3)cc12	> 11700	> 4620	> 100000
O=C(O)c1c[nH]c2cc(N3CCCCCC3)c(F)cc2c1=O	> 9800	> 12500	> 100000
COc1cc(NC(C)CCCN(Cc2ccccc2OC)C(=O)Nc2ccccc2OC)c2ncccc2c1 (stereo not given)	847	614	> 10000
CCN1CCN(Cc2c(O)ccc3c(=O)c(Oc4ccccc4Br)c(C(F)(F)F)oc23)CC1	1390	377	> 100000
